Laboratory results taken from US20250228858A1, “ANTI-CANCER COMBINATION THERAPY” (Boehringer Ingelheim International GmbH, priority 2023, published 2025).
*1 amine or outer side, *2 acyl side, *3 side chain or, on linkers, in order; H or OH if unused. Where a SMILES comes first, the peptide text is derived from it. [ ]: non-standard residue; d: D form. The star is where a group is joined. Exatecan = CC[C@@]1(O)C(=O)OCc2c1cc1n(c2=O)Cc2c-1nc1cc(F)c(C)c3c1c2[C@@H](N*)CC3; Hexanoyl(6-maleimido) = O=C1C=CC(=O)N1CCCCCC(=O)*; NHCH2OCH2CO = O=C(COCN[*:1])[*:2]

What was measured:
[1] = system: HER2-overexpressing human breast cancer cell line SUM190PT; format: in vivo
Method: The study is performed in human breast cancer cell line SUM190PT grown as subcutaneous xenografts in NMRI-Foxn1^nu mice. Day 1 was the first day, day 21 the last day of treatment and final day of analysis.
Cells are obtained and cultured as described in Example 8 (see paragraph 8.1.2).
Capecitabine can be purchased from Roche Pharma AG. Capecitabine is suspended with 0.5% Natrosol and administered intragastrally with a volume of 10 ml/kg.
Tumor volumes and side effects are monitored as described in Example 1 (see paragraph 1.1.6), except that control animals are sacrificed when the median tumor volume of the group reaches a size of approximately 540 mm^3.
(§1) The statistical evaluation of the tumor volume and the body weight is conducted on day 21 (last day of the study). Apart from this, statistical analysis was performed as described in Example 1 (see paragraph 1.1.7), with no evaluation of tumor growth after stop of treatment.

parental NCI-N87 cells = assay: Proliferation assay (CellTiter Glo), parental NCI-N87 cells; format: cell-based, human; details: 5 days of incubation, in vitro
Method: (§2) Per well, 1000 cells are seeded in 40 μL medium in white, sterile 384-well culture plates (TC-treated; PerkinElmer #6007680) and incubated overnight in a humidified incubator at 37° C. and 5% CO2. 0.1% DMSO-control or serial compound dilution in triplicates are added. […] After 5 days of incubation with test compounds, the cells plates are measured upon addition of CellTiter Glo Luminescent Cell Viability Reagent (Promega, #G9243) to assess cell viability. The plates are placed on a shaker for five minutes and additionally incubated for 10 minutes at room temperature to induce cell lysis and to stabilize the luminescent signal. The luminescent signal of each well is measured in an EnSpire Multilabel Plate Reader 658 (PerkinElmer). The dose response curves are fit and visualized using Boehringer Ingelheim's proprietary software MegaLab and PRISM (GraphPad Inc.).

[2] = system: T-DXd-resistant NCI-N87 cells; assay: Proliferation assay (CellTiter Glo), T-DXd resistant NCI-N87 cells; format: cell-based, human; details: 5 days of incubation, in vitro
Method: as §2

[3] = system: HER2-overexpressing human NSCLC cell line Calu-3; assay: Calu-3 subcutaneous xenograft, zongertinib with trastuzumab and/or pertuzumab; format: in vivo, CB-17/Icr-Prkdc^scid mice; details: day 42, zongertinib 20 mg/kg qdx42 p.o., trastuzumab 20 mg/kg q7dx6 i.p., pertuzumab 20 mg/kg q7dx6 i.p., alone or combined
Method: The study is performed in human NSCLC cell line Calu-3 grown as subcutaneous xenografts in CB-17/Icr-Prkdc^scid mice. Day 1 was the first day, day 42 the last day of treatment and final day of analysis.
Calu-3 is a HER2-overexpressing human NSCLC cell line that can be obtained from ATCC (lot 614492062). Cells are cultured in T75, T175 and 5-Layer tissue culture flasks at 37° C. and 5% CO2. The medium used is EMEM (Lonza BE12-662F) supplemented with 10% FCS (Cytiva HyClone Characterized FBS, SH30084.03n), 2 mM Glutamax (Gibco 35050-038), 0.5 mM sodium pyruvate (Sigma S8636). Cultures are split once weekly with a ratio of 1:1.5-1:2.
To establish subcutaneous tumors, Calu-3 cells are harvested by centrifugation, washed and resuspended in PBS+5% FCS at 7×10^7 cells/ml. 50 μl cell suspension containing 3.5×10^6 cells is injected subcutaneously into the right flank of mice (1 site per mouse).
Mice in the control group are treated with vehicle, i.e.: • (i) 0.5% Natrosol, administered once daily for the duration of the treatment intragastrally by gavage needle with a volume of 10 ml/kg body weight; and • (ii) saline (0.9%), administered once every week intraperitoneally with a volume of 10 ml/kg.
Tumor volumes and side effects are monitored as described in Example 1 (see paragraph 1.1.6).
as §1

For `CCCCCOC(=O)Nc1nc(=O)n([C@@H]2O[C@H](C)[C@@H](O)[C@H]2O)cc1F` [Capecitabine, capecitabine, reference compound], the “Regressions >30%” value ([1]; day 21, tumors regressed/total (partial response), zongertinib 10 mg/kg qdx21 p.o., capecitabine 400 mg/kg qdx21 p.o., trastuzumab 20 mg/kg q7dx3 i.p., alone or combined) was 0/8, the TGI ([1]; day 21, zongertinib 10 mg/kg qdx21 p.o., capecitabine 400 mg/kg qdx21 p.o., trastuzumab 20 mg/kg q7dx3 i.p., alone or combined) was 106% and the “effect on tumor growth (median tumor volumes over time)” value ([1]; zongertinib 10 mg/kg qdx21, capecitabine 400 mg/kg qdx21, trastuzumab 20 mg/kg q7dx3, alone or triple combination) was “delayed tumor growth but did not shrink tumors”.

`CC[C@@]1(O)C(=O)OCc2c1cc1n(c2=O)Cc2c-1nc1cc(F)c(C)c3c1c2[C@@H](NC(=O)COCNC(=O)CNC(=O)[C@H](Cc1ccccc1)NC(=O)CNC(=O)CNC(=O)CCCCCN1C(=O)C=CC1=O)CC3` [deruxtecan, reference compound] ({Hexanoyl(6-maleimido)}-GGFG[NHCH2OCH2CO]-Exatecan) was tested, and the “sensitivity (dose response, cell viability)” value (parental NCI-N87 cells) was “sensitive” and the “sensitivity (dose response, cell viability)” value [2] was “resistant”.

pertuzumab [reference compound] was tested, and the “Regressions >30%” value ([3]; tumors regressed/total (partial response)) was 0/10 and the TGI [3] was 89%.
